Measured values taken from patent publication US20100267561A1, “HERBICIDAL PYRIDAZINONE DERIVATIVES” (priority 2007, published 2010).

Columns and labels:
Format in all cases: in vivo
[1] = test system: eastern black (E.B.) nightshade (Solanum ptycanthum); assay: Test B pre-/postemergence plant response; details: Preemergence
Procedure, shortened: (§1)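 Visual scoring from 0 (no effect) to 100 (complete control) against untreated controls was done 13 to 15 days after greenhouse treatment. Chemicals were formulated in a surfactant-containing non-phytotoxic solvent and applied to soil preemergence or to 1- to 4-leaf (2-18 cm) plants postemergence.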

[2] = test system: wheat (Triticum aestivum); assay: Test B pre-/postemergence plant response; details: for Wheat plant response rating: 8 g ai/ha
Procedure, shortened: as §1

[3] = test system: common (oilseed) sunflower (Helianthus annuus); assay: Test B pre-/postemergence plant response; details: Preemergence
Procedure, shortened: as §1

[4] = test system: soybean (Glycine max); assay: Test B pre-/postemergence plant response; details: for Soybean plant response rating: 8 g ai/ha
Procedure, shortened: as §1

[5] = test system: downy bromegrass (Bromus tectorum); assay: Test B pre-/postemergence plant response; details: for Bromegrass, Downy plant response rating: 8 g ai/ha
Procedure, shortened: as §1

[6] = test system: surinam grass (Brachiaria decumbens); assay: Test B pre-/postemergence plant response; details: for Surinam Grass plant response rating: 8 g ai/ha
Procedure, shortened: as §1

[7] = test system: giant foxtail (Setaria faberii); assay: Test B pre-/postemergence plant response; details: for Foxtail, Giant plant response rating: 8 g ai/ha
Procedure, shortened: as §1

[8] = test system: Russian thistle (Salsola iberica); assay: Test B pre-/postemergence plant response; details: Preemergence
Procedure, shortened: as §1

[9] = test system: goosegrass (Eleusine indica); assay: Test B pre-/postemergence plant response; details: for Goosegrass plant response rating: 8 g ai/ha
Procedure, shortened: as §1

[10] = test system: morningglory (Ipomoea coccinea); assay: Test B pre-/postemergence plant response; details: for Morningglory plant response rating: 8 g ai/ha
Procedure, shortened: as §1

[11] = test system: rice (Oryza sativa); assay: Test B flooded paddy test plant response
Procedure, shortened: (§2)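 Rice, umbrella sedge, ducksalad and barnyardgrass at 2-leaf stage; pots flooded to 3 cm, compounds applied into paddy water, depth held throughout. Greenhouse 13 to 15 days, then visual rating vs untreated controls on 0–100 scale (0 no effect, 100 complete control); dash means no test result.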

[12] = test system: umbrella sedge (Cyperus difformis); assay: Test B flooded paddy test plant response
Procedure, shortened: as §2

[13] = test system: ducksalad (Heteranthera limosa); assay: Test B flooded paddy test plant response; details: Flood (flooded paddy test), scale 0 to 100, 0 no effect, 100 complete control
Procedure, shortened: as §2

[14] = test system: barnyardgrass (Echinochloa crus-galli); assay: Test B flooded paddy test plant response
Procedure, shortened: as §2

[15] = 16 g ai/ha, scale 0 to 100 (0 no effect, 100 complete control)
[16] = 31 g ai/ha, scale 0 to 100 (0 no effect, 100 complete control)
[17] = Postemergence, 16 g ai/ha, scale 0 to 100
[18] = Postemergence, 62 g ai/ha, scale 0 to 100, 0 no effect, 100 complete control
[19] = Preemergence, 16 g ai/ha, scale 0 to 100 (0 no effect, 100 complete control)
[20] = Preemergence, 31 g ai/ha, scale 0 to 100 (0 no effect, 100 complete control)
[21] = Preemergence, 62 g ai/ha, 0 to 100 scale, 0 no effect, 100 complete control
[22] = Preemergence, 62 g ai/ha, scale 0 to 100
[23] = Postemergence, 31 g ai/ha, scale 0 to 100, 0 no effect, 100 complete control
[24] = Preemergence, 31 g ai/ha, 0 to 100 scale, 0 no effect, 100 complete control
[25] = Flood (flooded paddy test), 62 g ai/ha, scale 0 to 100, 0 no effect, 100 complete control
[26] = Flood (flooded paddy test), 125 g ai/ha, scale 0 to 100, 0 no effect, 100 complete control
[27] = Flood (flooded paddy test), 250 g ai/ha, scale 0 to 100, 0 no effect, 100 complete control
[28] = Flood, 31 g ai/ha, scale 0 to 100

Cc1cc(-c2ccc(C(F)(F)F)c(F)c2)nn1-c1c(O)c(C(F)(F)F)nn(C)c1=O [Compound 44]
75: Plant response rating, Goosegrass [9, 23]
50: Plant response rating, Barnyardgrass [14, 27]
60: Plant response rating, Bromegrass, Downy [5, 17] | Plant response rating, Bromegrass, Downy [5, 24] | Goosegrass plant response rating ([9]; postemergence, 0-100 scale) | Plant response rating, Goosegrass [9, 17]
0: Plant response rating, Nightshade, E. B. [1, 15] | Plant response rating, Nightshade, E. B. [1, 16] | Nightshade, E. B. plant response rating ([1]; 8 g ai/ha, scale 0 to 100) | Plant response rating, Wheat [2, 19] | Wheat plant response rating ([2]; Preemergence, scale 0 to 100) | Plant response rating, Sunflower [3, 15] | Plant response rating, Sunflower ([3]; 62 g ai/ha, scale 0 to 100) | Sunflower plant response rating ([3]; 8 g ai/ha, scale 0 to 100) | Soybean plant response rating ([4]; postemergence, 0-100 scale) | Plant response rating, Soybean [4, 17] | Plant response rating, Soybean [4, 18] | Soybean plant response rating ([4]; Preemergence, scale 0 to 100) | Bromegrass, Downy plant response rating ([5]; Preemergence, scale 0 to 100) | Plant response rating, Surinam Grass [6, 19] | Plant response rating, Surinam Grass [6, 20] | Surinam Grass plant response rating ([6]; Preemergence, scale 0 to 100) | Plant response rating, Foxtail, Giant [7, 19] | Plant response rating, Foxtail, Giant [7, 24] | Plant response rating, Foxtail, Giant [7, 22] | Foxtail, Giant plant response rating ([7]; Preemergence, scale 0 to 100) | Plant response rating, Russian Thistle [8, 15] | Plant response rating, Russian Thistle [8, 16] | Plant response rating, Russian Thistle ([8]; 62 g ai/ha, scale 0 to 100) | Russian Thistle plant response rating ([8]; 8 g ai/ha, scale 0 to 100) | Plant response rating, Goosegrass [9, 19] | Plant response rating, Goosegrass [9, 24] | Plant response rating, Goosegrass [9, 22] | Goosegrass plant response rating ([9]; Preemergence, scale 0 to 100) | Morningglory plant response rating ([10]; postemergence, 0-100 scale) | Plant response rating, Morningglory [10, 17] | Plant response rating, Morningglory [10, 23] | Plant response rating, Morningglory [10, 18] | Plant response rating, Morningglory [10, 19] | Plant response rating, Morningglory [10, 22] | Morningglory plant response rating ([10]; Preemergence, scale 0 to 100) | Plant response rating, Rice [11, 28] | Plant response rating, Sedge, Umbrella [12, 25] | Plant response rating, Sedge, Umbrella [12, 28] | Plant response rating, Ducksalad ([13]; 62 g ai/ha) | Plant response rating, Barnyardgrass [14, 25] | Plant response rating, Barnyardgrass [14, 28]
100: Plant response rating, Surinam Grass [6, 17] | Plant response rating, Surinam Grass [6, 18] | Plant response rating, Foxtail, Giant [7, 23] | Plant response rating, Foxtail, Giant [7, 18]
40: Bromegrass, Downy plant response rating ([5]; postemergence, 0-100 scale) | Plant response rating, Rice [11, 27]
10: Plant response rating, Wheat [2, 20]
55: Plant response rating, Nightshade, E. B. ([1]; 62 g ai/ha, scale 0 to 100) | Wheat plant response rating ([2]; postemergence, 0-100 scale)
98: Surinam Grass plant response rating ([6]; postemergence, 0-100 scale) | Plant response rating, Foxtail, Giant [7, 17]
15: Plant response rating, Rice [11, 25]
95: Plant response rating, Wheat [2, 18] | Foxtail, Giant plant response rating ([7]; postemergence, 0-100 scale)
30: Plant response rating, Sedge, Umbrella [12, 27] | Plant response rating, Barnyardgrass [14, 26]
85: Plant response rating, Bromegrass, Downy [5, 22]
90: Plant response rating, Wheat [2, 17] | Plant response rating, Wheat [2, 21] | Plant response rating, Soybean [4, 22] | Plant response rating, Bromegrass, Downy [5, 18] | Plant response rating, Goosegrass [9, 18]
70: Plant response rating, Soybean [4, 20] | Plant response rating, Bromegrass, Downy [5, 23] | Plant response rating, Ducksalad ([13]; 125 g ai/ha) | Plant response rating, Ducksalad ([13]; 250 g ai/ha)
20: Plant response rating, Bromegrass, Downy [5, 19] | Plant response rating, Surinam Grass [6, 21] | Plant response rating, Rice [11, 26] | Plant response rating, Sedge, Umbrella [12, 26]
